Data reported in patent publication US20230242496A1, “SOX11 INHIBITORS FOR TREATING MANTLE CELL LYMPHOMA” (Icahn School of Medicine At Mount Sinai, priority 2020, published 2023).

Assays:
(His)6-SOX11-DBD protein = target: T1, (His)6-SOX11-DBD protein (Homo sapiens, UniProt P35716); experiment: Surface Plasmon Resonance (SPR) assay; format: binding; details: immobilized recombinant (His)6-SOX11-DBD, 25° C., compounds 5-40 μM, mean of three experiments
T1 construct: Recombinant (His)6-SOX11-DBD protein was immobilized
T1 sequence (P35716 49-117 limits assumed): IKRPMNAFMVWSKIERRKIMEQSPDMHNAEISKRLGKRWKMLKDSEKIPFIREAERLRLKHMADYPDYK
Method: Surface Plasmon Resonance (SPR) Assay
Recombinant (His)6-SOX11-DBD protein was immobilized at a flow rate of 10 μl/min for 180 seconds to the right channel of a gold-coated SCR NiHC200M sensor chip (XanTec bioanalytics) placed in a Reichert 2SPR instrument (Reichert Technologies). The left channel, without immobilized protein, was used as a reference. […] Compounds flowed sequentially from the left to the right channel over the prepared sensor chip surface. 120 seconds association phase with each compound concentration was followed by 300 seconds dissociation phase with the assay buffer alone. The ka, kd, and KD values were determined from the sensograms for at least 3 concentrations of each compound by curve fitting the data using Reichert's TraceDrawer software. The mean KD value for each compound was calculated from three separate experiments.

Jeko-1 (SOX11+) = experiment: Cell viability assay (CellTiter-Blue resazurin reduction); format: cell-based; details: Homo sapiens, JeKo-1 cells; for IC50: 0-40 μM; for viability at 20 µM: 20 μM compound, normalized to 0.2% DMSO
Method: Cell viability was determined by a fluorometric resazurin reduction method (CellTiter-Blue; Promega, Madison, Wis.) following the manufacturer's instructions. […] Cells were incubated for 72 hours. After incubation, 20 μl CellTiter-Blue Cell was added to each well and incubated for another 2 hours. […] The number of viable cells in each treated well was calculated, based on the linear least squares regression of the standard curve (OD vs. cell concentration). The viability of cells treated with compounds was normalized to the viability of cells treated with 0.2% Dimethyl sulfoxide (DMSO). Cell counts were confirmed with Trypan Blue Exclusion Assay on the Countess automated cell counter (Invitrogen) according to the manufacturer's specifications. The average and mean standard deviation were calculated from three separate experiments. IC50 values were calculated using the GraphPad Prism (version 4.00) based on a sigmoidal dose-response equation.

Row | Structure (SMILES) | Kd ((His)6-SOX11-DBD protein) [µM] | IC50 (Jeko-1 (SOX11+); JeKo-1, 72 h) [µM] | viability at 20 µM (Jeko-1 (SOX11+); JeKo-1, 72 h) [%] | viability at 20 µM (Jeko-1 (SOX11+); 72 hours) [%] | IC50 (Jeko-1 (SOX11+); 72 hours) [µM]
1 | CC(C)C1Sc2ccc(C(=O)Nc3ccc(S(=O)(=O)Nc4ccccc4)cc3)cc2NC1=O (centres unmarked) | 1.18 | 2.5 | 1.01 | – | –
2 | CCCN1C(=O)CSc2ccc(C(=O)Nc3ccc(S(=O)(=O)N4CCCCC4)cc3)cc21 | 5.87 | 17 | 39.9 | – | –
3 | Cc1cccc(NS(=O)(=O)c2cccc(NC(=O)c3ccc4c(c3)NC(=O)C(C)S4)c2)c1 (centres unmarked) | 2.47 | 10 | 3.73 | – | –
4 | CC1Sc2ccc(C(=O)Nc3ccc(S(=O)(=O)Nc4ccccc4)s3)cc2NC1=O (centres unmarked) | 6.63 | > 20 | 57.4 | – | –
5 | Cc1cc(NC(=O)c2ccc3c(c2)NC(=O)C(C)S3)ccc1S(=O)(=O)Nc1ccccc1 (centres unmarked) | 2.5 | 10 | 1.22 | – | –
6 | CN1C(=O)CSc2ccc(C(=O)Nc3ccc(S(=O)(=O)N4CCCC4)c(Cl)c3)cc21 | 27.4 | – | 16 | – | –
7 | O=C(Nc1ccc(S(=O)(=O)N2CCCCC2)c(Cl)c1)c1ccc2c(c1)CCCS2 | 17.6 | – | 35.1 | – | –
8 | CC1Sc2ccc(C(=O)Nc3ccc(S(=O)(=O)Nc4ccc(Cl)cc4)cc3)cc2NC1=O (centres unmarked) | 0.861 | 15 | 9.99 | – | –
9 | CC1Sc2ccc(NC(=O)c3ccc(S(=O)(=O)Nc4ccccc4)cc3)cc2NC1=O (centres unmarked) | 33.2 | 9 | 33.5 | – | –
10 | O=C(Nc1ccc(S(=O)(=O)N2CCCC2)c(Cl)c1)c1ccc2c(c1)CCCS2 | 3.86 | – | 1.26 | – | –
11 | CC1Sc2ccc(C(=O)Nc3cccc(S(=O)(=O)Nc4ccccc4F)c3)cc2NC1=O (centres unmarked) | 28.7 | 13 | 22.7 | – | –
12 | CC1Sc2ccc(C(=O)Nc3ccc(S(=O)(=O)Nc4ccccc4)cc3)cc2N(C)C1=O (centres unmarked) | 1.95 | 8 | 1.23 | – | –
13 | O=C1COc2ccc(C(=O)Nc3ccc(S(=O)(=O)Nc4ccccc4)cc3)cc2N1 | 17.9 | > 20 | 61.1 | – | –
14 | CC1Sc2ccc(C(=O)Nc3ccc(S(=O)(=O)N4CCCCC4)cc3)cc2NC1=O (centres unmarked) | 3.63 | 8 | 7.38 | – | –
15 | CN1C(=O)CSc2ccc(C(=O)Nc3ccc(CN4CCCCCC4)cc3)cc21 | 6.93 | > 20 | 102 | – | –
16 | CC1Sc2ccc(C(=O)Nc3cccc(S(=O)(=O)N(C)C)c3)cc2NC1=O (centres unmarked) | 69.5 | 8.5 | 1.43 | – | –
17 | CC1Sc2ccc(C(=O)Nc3ccc(S(=O)(=O)Nc4cc[nH]c(=O)c4)cc3)cc2NC1=O (centres unmarked) | 24.8 | 18 | 34.8 | – | –
18 | Nc1ccccc1CC(=O)Nc1cccc(C(=O)Nc2ccc(S(=O)(=O)Nc3ccccc3)cc2)c1 | 0.805 | 11 | 9.92 | – | –
19 | O=C(Nc1cccc(S(=O)(=O)N2CCCCC2)c1)c1ccc2c(c1)CCCS2 | 3.01 | – | 54.2 | – | –

Row | Structure (SMILES) | Kd ((His)6-SOX11-DBD protein) [µM] | IC50 (Jeko-1 (SOX11+); JeKo-1, 72 h) [µM] | viability at 20 µM (Jeko-1 (SOX11+); JeKo-1, 72 h) [%] | viability at 20 µM (Jeko-1 (SOX11+); 72 hours) [%] | IC50 (Jeko-1 (SOX11+); 72 hours) [µM]
20 | CC1Sc2ccc(C(=O)Nc3cccc(S(=O)(=O)Nc4ccc(C(F)(F)F)cc4)c3)cc2NC1=O (centres unmarked) | 2.12 | < 20 | 22.2 | – | –
21 | CCN(c1ccccc1)S(=O)(=O)c1cccc(NC(=O)c2ccc3snnc3c2)c1 | 2.65 | 8.5 | 4.86 | – | –
22 | Cc1ccc(NC(=O)c2ccc3c(c2)N(C)C(=O)CS3)cc1S(=O)(=O)N1CCCC1 | 35.9 | – | 90.9 | – | –
23 | CC1Sc2ccc(C(=O)Nc3cccc(CNc4cccc(S(=O)(=O)F)c4)c3)cc2NC1=O (centres unmarked) | 1.9 | – | – | 44.3 | 19
24 | CC1Sc2ccc(C(=O)Nc3ccc(S(=O)(=O)N4CCCC4)c(Cl)c3)cc2N(C)C1=O (centres unmarked) | 20.4 | – | 8.44 | – | –
25 | Cc1nc2cc(C(=O)Nc3ccc(S(=O)(=O)Nc4ccccc4)cc3)ccc2s1 | 21.2 | 12 | 16.6 | – | –
26 | O=C(CCc1c[nH]cn1)Nc1cccc(C(=O)Nc2ccc(S(=O)(=O)Nc3ccccc3)cc2)c1 | 6.46 | > 20 | 90.7 | – | –
27 | CC1Sc2ccc(C(=O)Nc3cccc(S(=O)(=O)NC4CC4)c3)cc2NC1=O (centres unmarked) | 96.9 | 4 | 11.9 | – | –
28 | CC1Sc2ccc(C(=O)Nc3ccc(S(=O)(=O)NC4CCNCC4)cc3)cc2NC1=O (centres unmarked) | 100 | > 20 | 80.7 | – | –
29 | CC1Sc2ccc(C(=O)Nc3cccc(S(=O)(=O)N4CCCCC4)c3)cc2NC1=O (centres unmarked) | 41.5 | 10 | 0.6 | – | –
30 | CC1Sc2ccc(C(=O)Nc3cccc(CNc4ccc(OS(=O)(=O)F)cc4)c3)cc2NC1=O (centres unmarked) | 3.53 | – | – | 4.81 | 10
31 | O=C(Nc1ccc(S(=O)(=O)Nc2ccccc2)cc1)c1ccc2snnc2c1 | 5.65 | 5 to 10 | 34.3 | – | –
32 | O=C(Nc1ccc(S(=O)(=O)Nc2ccccc2)cc1)c1ccc2nc[nH]c2c1 | 230 | > 20 | 93.6 | – | –
33 | CC1Sc2ccc(C(=O)Nc3ccc(Cl)c(S(=O)(=O)N4CCCC4)c3)cc2NC1=O (centres unmarked) | 23.9 | – | 1.39 | – | –
34 | O=C1CSc2ccc(C(=O)Nc3cccc(S(=O)(=O)N4CCCC4)c3)cc2N1 | 38.6 | 20 | 45.4 | – | –
35 | Cc1ccc(NS(=O)(=O)c2ccc(NC(=O)c3ccc4c(c3)NC(=O)C(C)S4)cc2)cc1 (centres unmarked) | 12.4 | 10 | 0.51 | – | –
36 | CC1Sc2ccc(C(=O)Nc3ccc(S(=O)(=O)N(C)C(C)C)cc3)cc2NC1=O (centres unmarked) | 38.9 | 8 | 0.92 | – | –
37 | O=C(Nc1ccc(CNc2ccccc2)cc1)c1ccc2c(c1)CCCS2 | 13.5 | – | 51.9 | – | –
38 | Cc1ccccc1NS(=O)(=O)c1cccc(NC(=O)c2ccc3c(c2)NC(=O)C(C)S3)c1 (centres unmarked) | 7.42 | 6 | 6.11 | – | –

Row | Structure (SMILES) | Kd ((His)6-SOX11-DBD protein) [µM] | IC50 (Jeko-1 (SOX11+); JeKo-1, 72 h) [µM] | viability at 20 µM (Jeko-1 (SOX11+); JeKo-1, 72 h) [%] | viability at 20 µM (Jeko-1 (SOX11+); 72 hours) [%] | IC50 (Jeko-1 (SOX11+); 72 hours) [µM]
39 | O=C(Nc1ccc(OCc2ccccc2)cc1)c1ccc2snnc2c1 | 1.65 | > 20 | 93.6 | – | –
40 | CC1Sc2ccc(C(=O)Nc3ccc(S(=O)(=O)Nc4cccc(C(F)(F)F)c4)cc3)cc2NC1=O (centres unmarked) | 5.78 | 21 | 9.74 | – | –
41 | CC1Sc2ccc(C(=O)Nc3ccc(S(=O)(=O)Nc4cccc(F)c4)cc3)cc2NC1=O (centres unmarked) | 1.26 | < 20 | 28.2 | – | –
42 | O=C(Nc1ccc(S(=O)(=O)Nc2ccccc2)cc1)c1ccc2c(c1)CCCS2 | 1.62 | 12 | 1.95 | – | –
43 | CC1Sc2ccc(C(=O)Nc3ccc(S(=O)(=O)N4CCCCCC4)cc3)cc2NC1=O (centres unmarked) | 2.63 | 7.5 | 0.46 | – | –
44 | CC(C)NS(=O)(=O)c1cccc(NC(=O)c2ccc3c(c2)NC(=O)C(C)S3)c1 (centres unmarked) | 90.9 | 8 | 17.6 | – | –
45 | CC1Sc2ccc(C(=O)Nc3cccc(S(=O)(=O)Nc4cccc(Cl)c4)c3)cc2NC1=O (centres unmarked) | 3.15 | < 20 | 28.8 | – | –
46 | CC1Sc2ccc(C(=O)Nc3ccc(S(=O)(=O)Nc4ccc(N)cc4)cc3)cc2NC1=O (centres unmarked) | 19.6 | > 20 | 88 | – | –
47 | CC1Sc2ccc(C(=O)Nc3cccc(S(=O)(=O)Nc4ccc(NC(=O)OC(C)(C)C)cc4)c3)cc2NC1=O (centres unmarked) | 5.07 | > 20 | 67.4 | – | –
48 | c1ccc(COc2ccc(CNc3ccc4cncnc4c3)cc2)cc1 | 5.2 | – | 1.09 | – | –
49 | c1ccc(COc2cccc(CNc3ccc4cncnc4c3)c2)cc1 | 24.2 | – | 1.4 | – | –
50 | CC1Sc2ccc(C(=O)Nc3ccccc3S(=O)(=O)Nc3ccccc3)cc2NC1=O (centres unmarked) | 29.2 | < 20 | 14.2 | – | –
51 | Cc1ccccc1NS(=O)(=O)c1ccc(NC(=O)c2ccc3c(c2)NC(=O)C(C)S3)cc1 (centres unmarked) | 14.1 | 10 | 9.87 | – | –
52 | CC(C)NS(=O)(=O)c1ccc(NC(=O)c2ccc3c(c2)NC(=O)C(C)S3)cc1 (centres unmarked) | 9.79 | 8 | 20.3 | – | –
53 | CC1Sc2ccc(C(=O)Nc3cccc(S(=O)(=O)NC4CCNCC4)c3)cc2NC1=O (centres unmarked) | 54.6 | > 20 | 96.6 | – | –
54 | CCN1C(=O)CSc2ccc(C(=O)Nc3ccc(S(=O)(=O)N4CCCCC4)cc3)cc21 | 7.52 | – | – | – | –
55 | O=C(Cc1ccccc1[N+](=O)[O-])Nc1cccc(C(=O)Nc2ccc(CN3CCCC3)cc2)c1 | 247 | – | – | – | –
56 | CN(c1ccccc1)S(=O)(=O)c1ccc(NC(=O)c2ccc3c(c2)CCCS3)cc1 | 21.7 | – | – | – | –
